According to patent US11629171B2, “Beta-hairpin peptidomimetics” (POLYPHOR AG, priority 2017, dated 2023):
≈ marks a conversion by molar mass, not a printed value. Where a SMILES comes first, the peptide text is derived from it. Bridges are numbered along the chain shown (N, C = ends). Roman numbers before positions name the chains, in order. [ ]: non-standard residue; d: D form. Hiv = CC(C)[C@H](O)C(=O)O; dDab = NCC[C@@H](N)C(=O)O; Dab = NCC[C@H](N)C(=O)O; Abu = CC[C@H](N)C(=O)O; Dap = NC[C@H](N)C(=O)O

How the values were obtained:
[1] = test system: human red blood cells (hRBC); assay: Hemolysis; assay type: cell-based; settings: red cells of human, 1 h, 200
Summary of the method: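 Percent lysis of human red cells was derived from OD540 of the supernatant, referenced to 2% Triton X-100, after a 1 h, 37° C incubation of 20% (v/v) cells with 200 μg/mL peptide.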

[2] = test system: Acinetobacter baumannii DSM 30008; assay type: cell-based; settings: DSM 30008
Summary of the method: (§1)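 CLSI broth microdilution in cation-adjusted Mueller-Hinton II broth with 0.002% polysorbate 80 (final), inoculum appr. 10^6 CFU/mL, peptides in serial two-fold dilutions. MIC (μg/mL) is the lowest concentration without visible growth after 18-20 h at 35° C.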

[3] = test system: Klebsiella pneumoniae SSI #3010; assay type: cell-based; settings: SSI #3010
Summary of the method: as §1

[4] = test system: Escherichia coli ATCC 25922; assay type: cell-based; settings: ATCC 25922
Summary of the method: as §1

[5] = test system: Klebsiella pneumoniae 968733; assay type: cell-based; settings: 968733
Summary of the method: as §1

[6] = test system: Escherichia coli 926415; assay type: cell-based; settings: 926415
Summary of the method: as §1

[7] = test system: Enterobacter cloacae 848840; assay type: cell-based; settings: 848840
Summary of the method: as §1

[8] = test system: Pseudomonas aeruginosa ATCC 27853; assay type: cell-based; settings: ATCC 27853
Summary of the method: as §1

[9] = test system: Acinetobacter baumannii 872842; assay type: cell-based; settings: 872842
Summary of the method: as §1

[10] = test system: male ICR mice; assay: Tolerability in a mouse model (Maximum Tolerated Dose assay); assay type: in vivo; settings: 2 × 40 mg/kg s.c. at a 12-hr interval, groups of 3
Summary of the method: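 Peptides in 0.9% NaCl (pH 6.5-7.6) given s.c. at 30 or 40 mg/kg, twice 12 h apart, to groups of 3 male ICR mice (23±3 g). Acute toxic signs (mortality, convulsions, tremors, sedation) and autonomic effects (diarrhea, salivation, piloerection) observed for 30 min after each dose.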

SMILES | Hemolysis at 200 μg/mL [1] [%] | Acinetobacter baumannii DSM 30008 MIC [2] [µg/mL] | Klebsiella pneumoniae SSI #3010 MIC [3] [µg/mL] | Escherichia coli ATCC 25922 MIC [4] [µg/mL] | MIC [5] [µg/mL] | MIC [6] [µg/mL] | MIC [7] [µg/mL] | Pseudomonas aeruginosa ATCC 27853 MIC [8] [µg/mL] | MIC [9] [µg/mL] | Mortality and dose [10]
CC(=O)N[C@H](C(=O)N[C@H]1CSSC[C@@H](C(=O)N[C@@H](CO)C(N)=O)NC(=O)[C@H](C(C)C)NC(=O)[C@H](CO)NC(=O)[C@H](Cc2c[nH]c3ccccc23)NC(=O)[C@H](CCC(=O)N[C@@H](CCN)C(=O)N[C@H](C(=O)N[C@@H](CN)C(=O)N[C@H]2CCNC(=O)[C@H]([C@@H](C)O)NC(=O)[C@H](CCN)NC(=O)[C@H](CCN)NC(=O)[C@H](CC(C)C)NC(=O)[C@@H](CC(C)C)NC(=O)[C@H](CCN)NC2=O)[C@@H](C)O)NC(=O)[C@@H](CCN)NC(=O)[C@H](Cc2c[nH]cn2)NC(=O)[C@H](CCN)NC(=O)[C@H](Cc2ccc(O)cc2)NC1=O)C(C)C [Ex. 365] (I: Ac-VCY[Dab]H[dDab]EWSVCS-NH2 / II: [Dab]T[Dap][Dab][Dab][dL]L[Dab][Dab]T; disulfide I:2-I:11; amide I:7-II:N; lactam II:4-II:C) | <1 | 0.0625 | 0.0625 | 0.03125 | 0.125 (≈ 0.051 µM) | 0.125 (≈ 0.051 µM) | 0.0625 (≈ 0.0255 µM) | 0.125 | 0.0625 (≈ 0.0255 µM) | 0/3 died at 2 × 40 mg/kg
CC(=O)N[C@H](C(=O)N[C@H]1CSSC[C@@H](C(=O)N[C@H](C)C(=O)N[C@@H](CO)C(N)=O)NC(=O)[C@H](C(C)C)NC(=O)[C@H](CO)NC(=O)[C@H](Cc2c[nH]c3ccccc23)NC(=O)[C@H](CO)NC(=O)[C@@H](CCN)NC(=O)[C@H](CCC(=O)N[C@@H](CCN)C(=O)N[C@H](C(=O)N[C@@H](CN)C(=O)N[C@H]2CCNC(=O)[C@H]([C@@H](C)O)NC(=O)[C@H](CCN)NC(=O)[C@H](CCN)NC(=O)[C@H](CC(C)C)NC(=O)[C@@H](CC(C)C)NC(=O)[C@H](CCN)NC2=O)[C@@H](C)O)NC(=O)[C@H](CCN)NC(=O)[C@H](Cc2ccc(O)cc2)NC1=O)C(C)C [Ex. 370] (I: Ac-VCY[Dab]E[dDab]SWSVC[dA]S-NH2 / II: [Dab]T[Dap][Dab][Dab][dL]L[Dab][Dab]T; disulfide I:2-I:11; amide I:5-II:N; lactam II:4-II:C) | 2 | 0.0625 | 0.0625 | 0.0625 | 1 (≈ 0.405 µM) | 0.5 (≈ 0.202 µM) | 0.125 (≈ 0.0506 µM) | 0.125 | 0.5 (≈ 0.202 µM) | 0/3 died at 2 × 40 mg/kg
CC(=O)N[C@H](C(=O)N[C@H]1CSSC[C@@H](C(=O)N[C@@H](CO)C(=O)N[C@H](CO)C(N)=O)NC(=O)[C@H](C(C)C)NC(=O)[C@H](CO)NC(=O)[C@H](Cc2c[nH]c3ccccc23)NC(=O)[C@H](CO)NC(=O)[C@@H](CCN)NC(=O)[C@H](CCC(=O)N[C@@H](CCN)C(=O)N[C@H](C(=O)N[C@@H](CN)C(=O)N[C@H]2CCNC(=O)[C@H]([C@@H](C)O)NC(=O)[C@H](CCN)NC(=O)[C@H](CCN)NC(=O)[C@H](CC(C)C)NC(=O)[C@@H](CC(C)C)NC(=O)[C@H](CCN)NC2=O)[C@@H](C)O)NC(=O)[C@H](CCN)NC(=O)[C@H](Cc2ccc(O)cc2)NC1=O)C(C)C [Ex. 375] (I: Ac-VCY[Dab]E[dDab]SWSVCS[dS]-NH2 / II: [Dab]T[Dap][Dab][Dab][dL]L[Dab][Dab]T; disulfide I:2-I:11; amide I:5-II:N; lactam II:4-II:C) | <1 | 0.03125 | 0.0625 | 0.03125 | 0.125 (≈ 0.0503 µM) | 0.125 (≈ 0.0503 µM) | 0.25 (≈ 0.101 µM) | 0.125 | 0.0625 (≈ 0.0251 µM) | 0/3 died at 2 × 40 mg/kg
CC[C@@H]1NC(=O)[C@@H](CC(C)C)NC(=O)[C@H](CCN)NC(=O)[C@@H](NC(=O)[C@H](CN)NC(=O)[C@@H](NC(=O)[C@H](CCN)NC(=O)CC[C@@H]2NC(=O)[C@H](CCN)NC(=O)[C@H](Cc3ccc(O)cc3)NC(=O)[C@@H](NC(=O)[C@@H](O)C(C)C)CSSC[C@@H](C(=O)N[C@@H](CO)C(=O)N[C@H](CO)C(N)=O)NC(=O)[C@H]([C@@H](C)CC)NC(=O)[C@H](CO)NC(=O)[C@H](Cc3c[nH]c4ccccc34)NC(=O)CNC(=O)[C@@H](CCN)NC2=O)[C@@H](C)O)CCNC(=O)[C@H]([C@@H](C)O)NC(=O)[C@H](CCN)NC(=O)[C@H](CCN)NC1=O [Ex. 376] (I: H-[Hiv]CY[Dab]E[dDab]GWSICS[dS]-NH2 / II: [Dab]T[Dap][Dab][Dab][dL][Abu][Dab][Dab]T; disulfide I:2-I:11; amide I:5-II:N; lactam II:4-II:C) | <1 | 0.0625 | 0.0625 | 0.0625 | 0.5 (≈ 0.208 µM) | 0.25 (≈ 0.104 µM) | 0.0625 (≈ 0.026 µM) | 0.125 | 0.25 (≈ 0.104 µM) | 0/3 died at 2 × 40 mg/kg
CC(C)C[C@@H]1NC(=O)[C@@H](CC(C)C)NC(=O)[C@H](CCN)NC(=O)[C@@H](NC(=O)[C@H](CN)NC(=O)[C@@H](NC(=O)[C@H](CCN)NC(=O)CC[C@@H]2NC(=O)[C@H](CCN)NC(=O)[C@H](Cc3ccc(O)cc3)NC(=O)[C@@H](NC(=O)[C@@H](O)C(C)C)CSSC[C@@H](C(=O)N[C@@H](CO)C(=O)N[C@H](C)C(N)=O)NC(=O)[C@H](C(C)C)NC(=O)[C@H](CO)NC(=O)[C@H](Cc3c[nH]c4ccccc34)NC(=O)[C@H](CO)NC(=O)[C@@H](CCN)NC2=O)[C@@H](C)O)CCNC(=O)[C@H]([C@@H](C)O)NC(=O)[C@H](CCN)NC(=O)[C@H](CCN)NC1=O [Ex. 379] (I: H-[Hiv]CY[Dab]E[dDab]SWSVCS[dA]-NH2 / II: [Dab]T[Dap][Dab][Dab][dL]L[Dab][Dab]T; disulfide I:2-I:11; amide I:5-II:N; lactam II:4-II:C) | <1 | 0.0625 | 0.0625 | 0.03125 | 0.25 (≈ 0.103 µM) | 0.25 (≈ 0.103 µM) | 1 (≈ 0.412 µM) | 0.125 | 0.125 (≈ 0.0515 µM) | 0/3 died at 2 × 40 mg/kg
